# Patent US12559506B2, “Indazole based compounds and associated methods of use” (Arvinas Operations, Inc., priority 2021, dated 2026)
# Read-outs that look alike come from different tables or passages of the source.
# Target: T1, LRRK2 (endogenous, HiBit tagged) (Homo sapiens, UniProt Q5S007)
# T1 construct: endogenous in cells; host or cells: HEK293 cells with HiBit knock-in at the endogenous LRRK2 locus, stably expressing firefly luciferase
# Assay: Endogenous LRRK2 degradation assay, endogenous gene C-terminally HiBit-tagged in HEK293 cells (Nano-Glo Dual Luciferase)
# Assay type: cell-based
# From the text: Exemplary Assay for Testing LRRK2 Degradation Driven by Exemplary Hetero-Bifunctional Compounds Designed to Target LRRK2
# The assay measures the degradation of LRRK2 in cells where the C-terminus (3′) of the endogenous gene has been tagged with a HiBit sequence in HEK293 cells. The cells also express firefly luciferase, expressed from a Cytomegalovirus promoter and introduced into the HiBit tagged cells and stably expressed. The Nano-Glo® Dual Luciferase Reporter Assay System (Promega™, Madison, WI) was utilized.
# Day 1—Preparation of Compound and Assay Plates. Two sets of plates were prepared: a triplicate set for the HiBit assay in white 384-well plates and a triplicate set of plate in black 384-well plates for the Alamar Blue cell viability assay. Briefly, the growth media (DMEM+Glutamax-10% fetal bovine serum-1% Penicillin-Streptomicin) from two T128 flasks was aspirated from the flasks. Cells were washed with Dulbecco's Phosphate Buffered Saline (dPBS) and aspirated. Trypsin (3 mL per flask) was added and the flasks were incubated for 2-3 minutes.
# Ten mL of OptiMEM-10% fetal bovine-1% penicillin-streptomycin (hereinafter, “OptiMEM media”) was added to the flask and the cells and transferred to a 50 mL conical tube. A cell count (25 ul of cell into Effendorf vial+25 ul of Trypan Blue Stain) was performed and the cell density adjusted to 15,000 cell/45 μl/well (3.33×10^5/mL) in OptiMEM media.
# Fourty-five microliters of the cell suspension (15,000 cells) was aliquoted to each well of the white 384-well plate. The plates incubated at room temperature for 10 minutes before being placed in the 37° C.+5% CO2 incubator overnight
# Day 2—Compound Treatment. Exemplary compounds were prepared at a 1 mM starting concentration and 1:3 serial dilution for 11 points CRC prepared and stored in the freezer. The Master Compound Plate was thawed overnight at room temperature. DMSO (20 μL) was added into column 24 of the Master Compound Plate for negative control and 20 μL of 300 μM of Compound 4 in column 23 as positive control.
# Intermediate Compound Plate with 4% DMSO in OptiMEM Media. DMSO was added to warm OptiMEM media to achieve a 4% DMSO solution (approximately 50 mL/plate). One-hundred microliters of the OptiMEM-4% DMSO was aliquoted to each well of 384-Well Deep Well Microplates.
# The Master Compound Plate and the Intermediate Compound Plate were spun down.
# One microliter of compound from the Master Compound Plate was transferred into the Intermediate plate (a 1:100 dilution). The diluted mixture was mixed and 5 μL transferred into the assay plate (a 1:10 dilution) for the final starting concentration of 1 μM. The Treated Assay plates were incubated for 24 hours at 37° C.+5% CO2. The Master Compound Plate was sealed and store at room temperature for a second run that was performed within a week.
# Day 3—HiBit Assay. Five microliters of Alamar Blue was added to each well of the black 384-well plates. The plates were incubated for 2 hours in the incubator (37° C.+5% CO2) and at room temperature for one hour. Fluorescence of each plate was read on a plated reader for the Alamar Blue viability assay.
# One set of white assay plates was warmed to room temperature (45 minute).
# The One Glo luciferase mixture was prepared. The media from white 384-well assay plates was aspirated. Twenty-five μL of the One Glo luciferase mixture was added to each well of the assay plates. The plates were incubated on the bench (room temperature) for 45 minutes, including 10 minutes of shaking at 700 rpm. The luminescence of each plate was read on a plate reader.
# 1:100 DLR substrate and 1:100 LgBiT Protein dilution were added to the Promega Stop and Glo buffer and mixed just before addition to assay plates. Twenty-five microliters of Stop and Glo mixture was added to each well. Assay plates incubated for at least 45 minutes, including 10 minutes of shaking at 700 rpm. The luminescence of each plate was read on a plate reader.
# Analysis of LRRK2 HiBit Screening assays. […]
# [1] = endogenous HiBit-tagged LRRK2 in HEK293 cells, 24 hours treatment, read-out: **Endogenous WT Dmax (%)
# [2] = endogenous HiBit-tagged LRRK2 in HEK293 cells, 24 hours treatment, read-out: *Endogenous WT DC50
# [3] = endogenous HiBit-tagged LRRK2 in HEK293 cells, 24 hours treatment, read-out: Endogenous WT DC50
# [4] = endogenous HiBit-tagged LRRK2 in HEK293 cells, 24 hours treatment, read-out: Endogenous WT Dmax
# T1 sequence (Q5S007 whole entry): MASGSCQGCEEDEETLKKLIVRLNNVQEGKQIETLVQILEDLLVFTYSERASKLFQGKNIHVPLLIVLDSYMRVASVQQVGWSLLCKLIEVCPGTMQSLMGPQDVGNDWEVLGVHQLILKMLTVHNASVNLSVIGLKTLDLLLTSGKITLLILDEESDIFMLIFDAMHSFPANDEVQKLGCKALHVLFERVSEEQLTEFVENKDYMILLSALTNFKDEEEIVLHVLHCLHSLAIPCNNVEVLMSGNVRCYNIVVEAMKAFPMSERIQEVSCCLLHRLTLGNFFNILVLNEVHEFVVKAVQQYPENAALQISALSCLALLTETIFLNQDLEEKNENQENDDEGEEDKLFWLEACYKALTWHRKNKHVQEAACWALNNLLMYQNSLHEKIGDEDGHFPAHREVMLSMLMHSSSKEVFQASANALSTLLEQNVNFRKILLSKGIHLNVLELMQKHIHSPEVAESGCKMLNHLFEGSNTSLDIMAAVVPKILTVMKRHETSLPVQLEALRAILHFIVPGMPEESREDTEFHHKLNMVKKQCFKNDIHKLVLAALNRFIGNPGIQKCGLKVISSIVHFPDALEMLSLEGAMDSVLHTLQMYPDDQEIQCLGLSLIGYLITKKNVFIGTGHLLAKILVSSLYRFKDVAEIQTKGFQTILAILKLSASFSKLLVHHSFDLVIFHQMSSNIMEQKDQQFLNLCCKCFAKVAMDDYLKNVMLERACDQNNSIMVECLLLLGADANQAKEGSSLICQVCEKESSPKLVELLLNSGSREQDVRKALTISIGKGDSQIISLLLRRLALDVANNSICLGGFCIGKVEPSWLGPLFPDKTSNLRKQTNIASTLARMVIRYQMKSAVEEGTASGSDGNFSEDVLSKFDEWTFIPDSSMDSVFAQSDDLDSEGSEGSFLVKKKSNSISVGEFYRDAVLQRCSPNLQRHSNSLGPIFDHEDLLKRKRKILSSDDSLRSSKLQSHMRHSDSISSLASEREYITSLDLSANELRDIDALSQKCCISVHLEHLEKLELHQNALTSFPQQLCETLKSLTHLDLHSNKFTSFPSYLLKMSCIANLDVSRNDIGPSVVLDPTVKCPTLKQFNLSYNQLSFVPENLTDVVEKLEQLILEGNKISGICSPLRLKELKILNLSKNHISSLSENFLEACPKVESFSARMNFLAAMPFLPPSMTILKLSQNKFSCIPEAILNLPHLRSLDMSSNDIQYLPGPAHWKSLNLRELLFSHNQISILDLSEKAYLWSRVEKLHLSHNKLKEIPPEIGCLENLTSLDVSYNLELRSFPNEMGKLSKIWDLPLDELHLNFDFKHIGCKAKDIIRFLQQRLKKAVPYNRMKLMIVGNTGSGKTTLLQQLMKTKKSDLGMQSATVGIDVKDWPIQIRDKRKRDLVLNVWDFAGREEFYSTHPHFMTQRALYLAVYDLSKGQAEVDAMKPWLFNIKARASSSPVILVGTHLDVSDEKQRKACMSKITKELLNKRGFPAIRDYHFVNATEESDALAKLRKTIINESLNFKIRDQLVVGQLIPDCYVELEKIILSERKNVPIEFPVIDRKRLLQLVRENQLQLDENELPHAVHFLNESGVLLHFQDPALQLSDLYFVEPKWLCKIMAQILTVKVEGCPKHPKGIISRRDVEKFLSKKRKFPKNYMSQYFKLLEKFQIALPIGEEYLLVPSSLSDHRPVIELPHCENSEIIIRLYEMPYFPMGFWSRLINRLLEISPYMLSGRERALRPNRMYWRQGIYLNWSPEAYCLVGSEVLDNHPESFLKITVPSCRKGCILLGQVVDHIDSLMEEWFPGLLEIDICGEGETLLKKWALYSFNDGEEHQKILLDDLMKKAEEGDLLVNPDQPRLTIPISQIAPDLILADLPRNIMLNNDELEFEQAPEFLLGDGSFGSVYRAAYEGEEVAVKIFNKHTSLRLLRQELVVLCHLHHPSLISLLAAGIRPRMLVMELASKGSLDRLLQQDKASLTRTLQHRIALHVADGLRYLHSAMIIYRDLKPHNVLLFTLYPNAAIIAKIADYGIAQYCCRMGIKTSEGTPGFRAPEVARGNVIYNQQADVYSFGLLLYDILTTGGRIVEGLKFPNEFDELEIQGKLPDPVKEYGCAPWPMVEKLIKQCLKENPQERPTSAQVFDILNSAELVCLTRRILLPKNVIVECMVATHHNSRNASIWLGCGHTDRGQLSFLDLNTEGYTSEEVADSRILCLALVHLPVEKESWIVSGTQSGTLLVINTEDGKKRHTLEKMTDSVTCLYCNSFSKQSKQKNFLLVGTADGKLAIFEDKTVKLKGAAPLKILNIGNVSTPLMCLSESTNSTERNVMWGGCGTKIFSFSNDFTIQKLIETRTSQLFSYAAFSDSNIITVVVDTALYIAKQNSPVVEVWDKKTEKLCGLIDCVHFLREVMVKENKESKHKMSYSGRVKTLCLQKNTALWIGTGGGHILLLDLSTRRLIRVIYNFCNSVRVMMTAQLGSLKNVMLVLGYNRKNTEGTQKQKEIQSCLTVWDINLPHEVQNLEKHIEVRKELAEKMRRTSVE
DC50 [3],Dmax [4],Compound,further results
< 10 nM,50 to 70%,"CC1(Oc2ccc3[nH]nc(-c4ccnc(N5CCC(O[C@H]6CC[C@H](CN7CCN(c8ccc9c(c8F)CN(C8CCC(=O)NC8=O)C9=O)CC7)CC6)CC5)c4)c3n2)CC1 (stereo partly drawn) [Compound 375, 3-(4-fluoro-5-(4-(((1r,4r)-4-((1-(4-(5-(1-methylcyclopropoxy)-1H-pyrazolo[4,3-b]pyridin-3-yl)pyridin-2-yl)piperidin-4-yl)oxy)cyclohexyl)methyl)piperazin-1-yl)-1-oxoisoindolin-2-yl)piperidine-2,6-dione]",–
< 10 nM,50 to 70%,"CC1(Oc2ccc3[nH]nc(-c4ccnc(N5CCN(C[C@H]6CC[C@H](OC7CCN(c8ccc9c(c8F)CN(C8CCC(=O)NC8=O)C9=O)CC7)CC6)CC5)c4)c3c2)CC1 (stereo partly drawn) [Compound 358, 3-[4-fluoro-1-oxo-5-(4-{[(1r,4r)-4-[(4-{4-[5-(1-methylcyclopropoxy)-1H-indazol-3-yl]pyridin-2-yl}piperazin-1-yl)methyl]cyclohexyl]oxy}piperidin-1-yl)-2,3-dihydro-1H-isoindol-2-yl]piperidine-2,6-dione]",–
< 10 nM,50 to 70%,"CC1(Oc2cc3c(-c4cc(N5CCC(O[C@H]6CC[C@H](OC7CCN(c8ccc9c(c8F)CN(C8CCC(=O)NC8=O)C9=O)CC7)CC6)CC5)ncn4)n[nH]c3cc2F)CC1 (stereo partly drawn) [Compound 227, 3-[4-fluoro-1-oxo-5-(4-{[(1r,4r)-4-[(1-{6-[6-fluoro-5-(1-methylcyclopropoxy)-1H-indazol-3-yl]pyrimidin-4-yl}piperidin-4-yl)oxy]cyclohexyl]oxy}piperidin-1-yl)-2,3-dihydro-1H-isoindol-2-yl]piperidine-2,6-dione]",–
< 10 nM,≥ 70%,"C[C@H]1CN(CC2CCN(c3cc(-c4n[nH]c5ccc(OC6(C)CC6)cc45)ncn3)CC2)CCN1CC1CCN(c2ccc3c(c2F)CN(C2CCC(=O)NC2=O)C3=O)CC1 (stereo partly drawn) [Compound 222, 3-[4-fluoro-5-(4-{[(2S)-2-methyl-4-[(1-{6-[5-(1-methylcyclopropoxy)-1H-indazol-3-yl]pyrimidin-4-yl}piperidin-4-yl)methyl]piperazin-1-yl]methyl}piperidin-1-yl)-1-oxo-2,3-dihydro-1H-isoindol-2-yl]piperidine-2,6-dione]",–
< 10 nM,50 to 70%,"CC1(Oc2ccc3[nH]nc(-c4cc(N5CCC(CN6CCN(CC7CCN(c8ccc9c(c8F)CN(C8CCC(=O)NC8=O)C9=O)CC7)CC6(C)C)CC5)ncn4)c3c2)CC1 (stereo not drawn) [Compound 224, 3-[5-[4-[[3,3-dimethyl-4-[[1-[6-[5-(1-methylcyclopropoxy)-1H-indazol-3-yl]pyrimidin-4-yl]-4-piperidyl]methyl]piperazin-1-yl]methyl]-1-piperidyl]-4-fluoro-1-oxo-isoindolin-2-yl]piperidine-2,6-dione]",–

# More lines, now with the values behind:
Compound,DC50 [3],Dmax [4],further results
"COc1c(N2CCC(CN3CCN(CC4CCN(c5cc(-c6n[nH]c7cnc(OC8(C)CC8)cc67)ncn5)CC4)[C@@H](C)C3)CC2)ccc2c1CN(C1CCC(=O)NC1=O)C2=O (stereo partly drawn) [Compound 282, 3-[4-methoxy-5-(4-{[(3S)-3-methyl-4-[(1-{6-[5-(1-methylcyclopropoxy)-1H-pyrazolo[3,4-c]pyridin-3-yl]pyrimidin-4-yl}piperidin-4-yl)methyl]piperazin-1-yl]methyl}piperidin-1-yl)-1-oxo-2,3-dihydro-1H-isoindol-2-yl]piperidine-2,6-dione]",–,–,Dmax [1]: ≥ 70%; DC50 [2]: < 10 nM
"CC1(Oc2ccc3[nH]nc(-c4cc(N5CCC(O[C@H]6CC[C@H](CN7CCN(c8c(F)cc9c(c8F)CN(C8CCC(=O)NC8=O)C9=O)CC7)CC6)CC5)ncn4)c3c2)CC1 (stereo partly drawn) [Compound 269, 3-[4,6-difluoro-1-oxo-5-(4-{[(1r,4r)-4-[(1-{6-[5-(1-methylcyclopropoxy)-1H-indazol-3-yl]pyrimidin-4-yl}piperidin-4-yl)oxy]cyclohexyl]methyl}piperazin-1-yl)-2,3-dihydro-1H-isoindol-2-yl]piperidine-2,6-dione]",–,–,Dmax [1]: 50 to 70%; DC50 [2]: < 10 nM
"CC1(Oc2ccc3[nH]nc(-c4cc(N5CCC(CN6CCC(F)(CN7CCN(c8c(F)cc9c(c8F)CN(C8CCC(=O)NC8=O)C9=O)CC7)CC6)CC5)ncn4)c3c2)CC1 (stereo not drawn) [Compound 373, 3-{4,6-difluoro-5-[4-({4-fluoro-1-[(1-{6-[5-(1-methylcyclopropoxy)-1H-indazol-3-yl]pyrimidin-4-yl}piperidin-4-yl)methyl]piperidin-4-yl}methyl)piperazin-1-yl]-1-oxo-2,3-dihydro-1H-isoindol-2-yl}piperidine-2,6-dione]",< 10 nM,≥ 70%,–
"CC1(Oc2ccc3[nH]nc(-c4cc(N5CCN(CC6(F)CCN(CC7CCN(c8cccc9c8CN(C8CCC(=O)NC8=O)C9=O)CC7)CC6)CC5)ncn4)c3c2)CC1 (stereo not drawn) [Compound 179, 3-[4-[4-[[4-fluoro-4-[[4-[6-[5-(1-methylcyclopropoxy)-2H-indazol-3-yl]pyrimidin-4-yl]piperazin-1-yl]methyl]-1-piperidyl]methyl]-1-piperidyl]-1-oxo-isoindolin-2-yl]piperidine-2,6-dione]",–,–,"Dmax (endogenous HiBit-tagged LRRK2, HEK293 cells, 24 hours, read-out: **Endogenous WT Dmax (%)): 50 to 70%; DC50 (endogenous HiBit-tagged LRRK2, HEK293 cells, 24 hours, read-out: *Endogenous WT DC50): < 10 nM"
"C[C@H]1CN(c2cc(-c3[nH]nc4ccc(OC5(C)CC5)cc34)ncn2)CCN1CCC1CCN(C(=O)C2CCN(c3ccc4c(c3)C(=O)N(C3CCC(=O)NC3=O)C4=O)CC2)CC1 (stereo partly drawn) [Compound 57, 2-(2,6-dioxopiperidin-3-yl)-5-[4-(4-{2-[(2S)-2-methyl-4-{6-[5-(1-methylcyclopropoxy)-2H-indazol-3-yl]pyrimidin-4-yl}piperazin-1-yl]ethyl}piperidine-1-carbonyl)piperidin-1-yl]-2,3-dihydro-1H-isoindole-1,3-dione]",–,–,"Dmax (endogenous HiBit-tagged LRRK2 in HEK293 cells, 24 hours, read-out: **Endogenous WT Dmax (%)): ≥ 70%; DC50 (endogenous HiBit-tagged LRRK2 in HEK293 cells, 24 hours, read-out: *Endogenous WT DC50): < 10 nM"
"COc1c(N2CCC(CN3CC[C@H](OC4CCN(c5cc(-c6n[nH]c7ccc(OC8(C)CC8)cc67)ncn5)CC4)CC3(C)C)CC2)ccc2c1CN(C1CCC(=O)NC1=O)C2=O (stereo partly drawn) [Compound 325, 3-(5-(4-(((S)-2,2-dimethyl-4-((1-(6-(5-(1-methylcyclopropoxy)-1H-indazol-3-yl)pyrimidin-4-yl)piperidin-4-yl)oxy)piperidin-1-yl)methyl)piperidin-1-yl)-4-methoxy-1-oxoisoindolin-2-yl)piperidine-2,6-dione]",–,–,Dmax [1]: 50 to 70%; DC50 [2]: < 10 nM
"COc1c(N2CCN(CC3(F)CCN(CC4CCN(c5cc(-c6n[nH]c7cnc(OC8(C)CC8)cc67)ncn5)CC4)CC3)CC2)ccc2c1CN(C1CCC(=O)NC1=O)C2=O (stereo not drawn) [Compound 369, 3-{5-[4-({4-fluoro-1-[(1-{6-[5-(1-methylcyclopropoxy)-1H-pyrazolo[3,4-c]pyridin-3-yl]pyrimidin-4-yl}piperidin-4-yl)methyl]piperidin-4-yl}methyl)piperazin-1-yl]-4-methoxy-1-oxo-2,3-dihydro-1H-isoindol-2-yl}piperidine-2,6-dione]",< 10 nM,50 to 70%,–
